Laboratory results: US8466203B2, “Method of stabilizing human eye tissue by reaction with nitrite and related agents such as nitro compounds” (priority 2006, dated 2013)
Each block holds one molecule with its values, some of them ahead of it.

Legend:
[1] = tested on: porcine cornea; assay: Yellowing of cross-linked porcine cornea
Method: (§1) These images were taken from tissues cross-linked with nitrite and the β-nitro alcohols 2-nitroethanol, 2-nitro-1-propanol, and […], for 48 hrs. […] Fresh porcine corneal strips and corneoscleral complexes were obtained within 6 hrs of sacrifice and incubated at 37° C. in buffered solutions (pH 7.4) containing 20% Dextran (T500) and either 100 mM NaNO2 or 100 mM of one each of the β-nitro alcohols. After 48 hrs, the following images were obtained. […] FIGS. 13 (B and D)
As such, the effects on corneal light transmission induced by cross-linking with β-nitro alcohols was evaluated using a method adopted from Dillon et al 2004.

[2] = tested on: primary bovine corneal endothelial cells; conditions: bovine, 48 h
[3] = tested on: porcine sclera; assay: Thermal shrinkage temperature analysis of porcine scleral strips; conditions: for shift in Ts (in words): neutral pH, up to 100 mM
From the text: (§2) Thermal shrinkage temperature or denaturation temperature (Ts) is a technique that has been used for decades in studying collagen cross-linking. As collagen fibers are progressively heated, a threshold temperature is reached at which point disruption of hydrogen bonding in the collagen molecule triple helix occurs, resulting in unwinding of the triple helices. The denaturation of tertiary protein structure results in a rapid shrinkage of the tissue of up to 80%. This phenomenon can be expressed in various ways including temperature of onset of tissue shrinkage, temperature at maximal tissue shrinkage, and temperature at 50% of maximal tissue shrinkage, for example. In addition, differential scanning calorimetry (DSC) is related to thermal shrinkage temperature analysis and is widely used to evaluate biomaterial cross-linking. Thermal shrinkage temperature is essentially a simplified version of DSC and can be used effectively to screen the cross-linking efficacy of compounds. For the purposes of this study, the onset of shrinkage is considered the Ts and the temperature at which 50% of maximal shrinkage has occurred is T50. Graphs depicting the relationship between degree of shrinkage and temperature indicate differences in degree of cross-linking between groups. Thus, stabilization of collagen fiber structures through non-enzymatic cross-linking increases Ts and T50.
(§3) This system can perform multiple Ts assays in succession, allowing rapid screening of a number of potential cross-linking agents and conditions. […] Inlet and outlet fittings allow for constant circulation of heated water which is modulated by a digitally controlled water bath equipped with a water pump. The entire box is placed on a digital photo scanner connected to a Windows based computer. Beginning at 50° C. the temperature is raised at a rate of 1° C./min and serial scans are taken at every degree increase in temperature up to 80° C. […] As the tissue shrinks, the images are captured by the scanner. The image files are later analyzed for 2-dimensional area using NIH Image J software and % shrinkage calculations are made using Microsoft Excel for graphing purposes. This method obviates the need for removal of tissue pieces from the water bath with manual micrometer measurements as described by the UVR group (Spoerl, E., et al., 2004).
Using this simple, reproducible assay enables the screening of a number of compounds for cross-linking efficacy. This is first performed using porcine eyes because of their low cost. Follow up studies can be performed using human eyes. Porcine eyes are obtained within 6 hrs of sacrifice (Hatfield Meat Packing, Inc., Hatfield Pa.). Eyes showing clear corneas and intact epithelia are chosen for study. […] Each strip is then cross-linked using a nitro agent. […] Opthalmol. 1999; 117:166-169) for 24-96 hrs. Following incubation, the samples are evaluated for degree of cross-linking using the Ts assay as described above.
From the data, Ts curves are generated for each compound and condition studied. Each data point is the average of 3 independent samples.

[4] = tested on: porcine cornea; assay: Thermal shrinkage temperature analysis of porcine corneal strips
From the text: as §2, §3
Using this simple, reproducible assay enables the screening of a number of compounds for cross-linking efficacy. This is first performed using porcine eyes because of their low cost. Follow up studies can be performed using human eyes. Porcine eyes are obtained within 6 hrs of sacrifice (Hatfield Meat Packing, Inc., Hatfield Pa.). Eyes showing clear corneas and intact epithelia are chosen for study. […] Each strip is then cross-linked using a nitro agent. The incubation solution is 20% Dextran (T500) [to prevent tissue swelling] in 0.2 M NaH2PO4/Na2HPO4 (pH 7.4) with various concentrations of nitro agent (i.e. 1, 10, and 100 mM). […] The samples are then placed in 2 mL microcentrifuge tubes with 1 mL of incubation solution and reacted in a 34° C. water bath (simulating corneal temperature—Girardin, F., et al., “Relationship between corneal temperature and finger temperature,” Arch. Opthalmol. 1999; 117:166-169) for 24-96 hrs. Following incubation, the samples are evaluated for degree of cross-linking using the Ts assay as described above.

[5] = tested on: porcine cornea; assay: Gross stiffness of porcine corneal strips handled with a forceps; conditions: 100 mM, pH 7.4, 37° C., 48 hrs
Method: Fresh porcine corneal strips and corneoscleral complexes obtained within 6 hrs of sacrifice and incubated at 37° C. in buffered solutions (pH 7.4) containing 20% Dextran (T500) and either 100 mM NaNO2 or 100 mM of one each of the specified β-nitro alcohols
as §1

[6] = tested on: human fibroblasts; conditions: Sung 1998; cited from earlier work
[7] = 1 mM reagent, pH 7.4, 37° C., 96 hrs
[8] = 10 mM reagent, pH 7.4, 37° C., 96 hrs
[9] = 100 mM reagent, pH 7.4, 37° C., 96 hrs
[10] = 100 mM, 24 hrs reaction, pH 7.4

Compound: CC(CO)[N+](=O)[O-] (stereo not drawn) [2-nitro-1-propanol]
yellowing (tinting) [1]: without producing yellowing
highest tolerated level [2]: 0.75 mM
T50 (temperature at 50% of maximal shrinkage) [3, 7]: 66.0 °C
T50 Δ (change in 50% shrinkage temperature compared to control) [3, 7]: 0.7 °C
Ti (temperature at 1% absolute shrinkage) [3, 7]: 63.0 °C
T50 (temperature at 50% of maximal shrinkage) [3, 8]: 67.5 °C
T50 Δ (change in 50% shrinkage temperature compared to control) [3, 8]: 2.2 °C
Ti (temperature at 1% absolute shrinkage) [3, 8]: 64.4 °C
T50 (temperature at 50% of maximal shrinkage) [3, 9]: 72.7 °C
T50 Δ (change in 50% shrinkage temperature compared to control) [3, 9]: 7.4 °C
Ti (temperature at 1% absolute shrinkage) [3, 9]: 69.5 °C
shifts in Ts (in words) [4]: produce shifts in Ts
stiffness change when handled with a forceps [5]: intermediate effect

Compound: NCCN(CCN)/[N+]([O-])=N/O [DETA/NONO, diethylenetriaamine NONOate, reference compound]
T50 (temperature at 50% of maximal shrinkage) [3, 9]: 65.5 °C
T50 Δ (change in 50% shrinkage temperature compared to control) [3, 9]: 0.2 °C
shift in Ts (in words) [3]: Neither compound was able to shift Ts parameters

Compound: NCCO [2-aminoethanol, reference compound]
T50 (temperature at 50% of maximal shrinkage) [3, 9]: 67.9 °C
T50 Δ (change in 50% shrinkage temperature compared to control) [3, 9]: 2.6 °C
Ti (temperature at 1% absolute shrinkage) [3, 9]: 64.3 °C
shift in Ts (in words) [3]: only a marginal shift in Ts

yellowing (tinting) [1]: without producing yellowing
Compound: CCCC(CO)[N+](=O)[O-] (stereo not drawn) [2-nitro-1-pentanol]
shifts in Ts (in words) [4]: produce shifts in Ts

Compound: CC[N+](=O)[O-] [2-nitroethane, reference compound]
T50 (temperature at 50% of maximal shrinkage) [3, 8]: 65.4 °C
T50 Δ (change in 50% shrinkage temperature compared to control) [3, 8]: 0.1 °C
Ti (temperature at 1% absolute shrinkage) [3, 8]: 62.5 °C
T50 (temperature at 50% of maximal shrinkage) [3, 9]: 65.3 °C
T50 Δ (change in 50% shrinkage temperature compared to control) [3, 9]: 0 °C
Ti (temperature at 1% absolute shrinkage) [3, 9]: 62.5 °C
shift in Ts (in words) [3]: did not shift the Ts to any extent

Compound: NCCCN(CCCN)/[N+]([O-])=N/O [DPTA/NONO, dipropylenetriamine NONOate, reference compound]
T50 ([3]; 10 mM, 24 hrs reaction, pH 7.4): 66.4 °C
T50 Δ ([3]; 10 mM, 24 hrs reaction, pH 7.4): 1.1 °C
T50 [3, 10]: 66.2 °C
T50 Δ [3, 10]: 0.9 °C
shift in Ts (in words) [3]: Neither compound was able to shift Ts parameters

Compound: CCC(C(C)O)[N+](=O)[O-] (stereo not drawn) [3-nitro-2-pentanol]
highest tolerated level [2]: 2 mM
T50 (temperature at 50% of maximal shrinkage) [3, 7]: 66.2 °C
T50 Δ (change in 50% shrinkage temperature compared to control) [3, 7]: 0.9 °C
Ti (temperature at 1% absolute shrinkage) [3, 7]: 62.5 °C
T50 (temperature at 50% of maximal shrinkage) [3, 8]: 67.7 °C
T50 Δ (change in 50% shrinkage temperature compared to control) [3, 8]: 2.4 °C
Ti (temperature at 1% absolute shrinkage) [3, 8]: 65.3 °C
T50 (temperature at 50% of maximal shrinkage) [3, 9]: 70.7 °C
T50 Δ (change in 50% shrinkage temperature compared to control) [3, 9]: 5.4 °C
Ti (temperature at 1% absolute shrinkage) [3, 9]: 68.3 °C
stiffness change when handled with a forceps [5]: dramatic stiffness change

Compound: COC(=O)C1=CO[C@@H](O)[C@@H]2C(CO)=CC[C@H]12 [genipin]
tolerable level relative to epoxy [6]: more than 20 ×
tolerable level relative to glutaraldehyde [6]: more than 100 ×

Compound: C[S+](C)[O-] [DMSO, reference compound]
T50 ([3]; 1% reagent, pH 7.4, 96 hrs): 65.0 °C
T50 Δ ([3]; 1% reagent, pH 7.4, 96 hrs): −0.3 °C

Compound: O=[N+]([O-])c1ccccc1O [2-nitrophenol, reference compound]
T50 (temperature at 50% of maximal shrinkage) [3, 7]: 65.2 °C
T50 Δ (change in 50% shrinkage temperature compared to control) [3, 7]: −0.1 °C
Ti (temperature at 1% absolute shrinkage) [3, 7]: 62.2 °C
T50 (temperature at 50% of maximal shrinkage) [3, 8]: 65.6 °C
T50 Δ (change in 50% shrinkage temperature compared to control) [3, 8]: 0.3 °C
Ti (temperature at 1% absolute shrinkage) [3, 8]: 62.3 °C
T50 (temperature at 50% of maximal shrinkage) [3, 9]: 66.0 °C
T50 Δ (change in 50% shrinkage temperature compared to control) [3, 9]: 0.7 °C
Ti (temperature at 1% absolute shrinkage) [3, 9]: 62.9 °C
shift in Ts (in words) [3]: very little shift in Ts

Compound: C=O [Formaldehyde, reference compound]
T50 (temperature at 50% of maximal shrinkage) ([3]; pH 7.4): 67.7 °C
T50 Δ (change in 50% shrinkage temperature compared to control) ([3]; pH 7.4): 2.4 °C

Compound: CCO [Ethanol, reference compound]
T50 (temperature at 50% of maximal shrinkage) [3, 9]: 65.2 °C
T50 Δ (change in 50% shrinkage temperature compared to control) [3, 9]: −0.1 °C

Compound: O=CCCCC=O [Glutaraldehyde, reference compound]
T50 (temperature at 50% of maximal shrinkage) [3, 7]: 68.9 °C
T50 Δ (change in 50% shrinkage temperature compared to control) [3, 7]: 3.6 °C
potency as a cross-linking agent relative to 2-nitroethanol ([3]; at moderate levels of T50 shift (~4° C.)): approximately 10 ×
